Results on three compounds are retold here after patent US20110207944A1, “VITAMIN D3 LACTAM DERIVATIVE” (TEIJIN PHARMA LIMITED, priority 2008, published 2011).

Structures are written as SMILES.

In assay [1] the target is T1, intracellular 1α,25-dihydroxyvitamin D3 receptor protein in chick intestinal mucous membrane (Gallus gallus, UniProt O42392).
T1 construct: The intracellular 1α,25-dihydroxyvitamin D3 receptor protein in chick intestinal mucous membrane (0.2 mg); from tissue; host or cells: chick intestinal mucous membrane
T1 sequence (O42392 1-451): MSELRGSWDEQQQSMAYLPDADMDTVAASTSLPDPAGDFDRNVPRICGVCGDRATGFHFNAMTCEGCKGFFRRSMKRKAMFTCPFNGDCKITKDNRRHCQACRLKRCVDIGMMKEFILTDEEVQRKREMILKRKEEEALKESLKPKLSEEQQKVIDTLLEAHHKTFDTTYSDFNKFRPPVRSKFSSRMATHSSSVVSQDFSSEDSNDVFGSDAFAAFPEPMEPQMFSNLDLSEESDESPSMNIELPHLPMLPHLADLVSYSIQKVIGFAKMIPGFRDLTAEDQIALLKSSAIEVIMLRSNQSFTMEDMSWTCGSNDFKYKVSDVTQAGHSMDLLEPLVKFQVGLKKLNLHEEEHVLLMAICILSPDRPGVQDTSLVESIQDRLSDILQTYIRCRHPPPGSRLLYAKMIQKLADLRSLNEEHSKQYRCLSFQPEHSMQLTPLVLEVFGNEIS
Nature of the assay: Binding affinity to intracellular vitamin D3 receptor (VDR) in chick intestinal mucous membrane, [3H]1α,25-dihydroxyvitamin D3 competition. As to conditions: ratio of IC50 relative to IC50 of 1α,25-dihydroxyvitamin D3, 25° C., 1 hour. How it is done: Binding Affinity to Intracellular Vitamin D3 Receptor (VDR) in Chick Intestinal Mucous Membrane
This binding affinity was assayed according to the method described by Ishizuka, et al. (Steroids, 37:33-43, 1982). Specifically, a solution of [26, 27-methyl-^3H]1α,25-dihydroxyvitamin D3 (15,000 dpm, 180 Ci/mmol) in ethanol (10 μL) and a solution of various concentrations of the compounds of the present invention in ethanol (40 μL) were added into a polypropylene tube (12×75 mm). The intracellular 1α,25-dihydroxyvitamin D3 receptor protein in chick intestinal mucous membrane (0.2 mg) and gelatin (1 mg) were dissolved in 1 mL of phosphate buffer (pH 7.4), the solution was added into the tube, and the mixture was allowed to react at 25° C. for 1 hour. To the tube, a 40% polyethylene glycol 6000 solution (1 mL) was added and the mixture was vigorously stirred. Then the tube was centrifuged at 2260×g at 4° C. for 60 minutes. The bottom of the tube containing precipitate was cut off by a cutter knife and was placed in a liquid scintillation vial, dioxane scintillator (10 mL) was added thereto and the radioactivity of the precipitate was measured by a liquid scintillation counter. The measured values were plotted against the concentration of the test compounds, and IC50 (the concentration of the test compounds at which binding to the receptor was inhibited by 50%) was determined. The ratios of the IC50 of the compounds of the present invention over the IC50 of 1α,25-dihydroxyvitamin D3 were calculated as the VDR affinity of the compounds of the present invention (%).

A further assay deals with T2, human VDR (Homo sapiens, UniProt P11473).
T2 construct: expressed in transfected cells; host or cells: HOS cells (human osteosarcoma, ATCC), pcDNA3 expression vector, Lipofectamine 2000
T2 sequence (P11473 1-427): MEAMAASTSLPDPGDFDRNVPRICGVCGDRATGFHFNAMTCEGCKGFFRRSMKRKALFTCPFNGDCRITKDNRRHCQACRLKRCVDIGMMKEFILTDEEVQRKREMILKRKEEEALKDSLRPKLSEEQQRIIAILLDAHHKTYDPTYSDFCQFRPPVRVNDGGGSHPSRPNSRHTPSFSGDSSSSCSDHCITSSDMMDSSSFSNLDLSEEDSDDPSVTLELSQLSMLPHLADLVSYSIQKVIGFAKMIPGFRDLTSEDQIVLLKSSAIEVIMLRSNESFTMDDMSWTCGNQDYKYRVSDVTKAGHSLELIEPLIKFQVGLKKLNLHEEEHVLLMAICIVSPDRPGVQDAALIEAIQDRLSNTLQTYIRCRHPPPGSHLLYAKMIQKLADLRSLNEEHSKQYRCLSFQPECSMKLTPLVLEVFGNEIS
Nature of the assay: Vitamin D3 receptor-antagonist activity: human osteocalcin promoter luciferase reporter in HOS cells transfected with human VDR and human RXR. It is filed as cell-based. As to conditions: for Antagonist specific activity against TEI-9647 (%): IC50 of test compound with respect to IC50 of TEI-9647 in each experiment; for IC50: luciferase activity in HOS cells, with 1α,25-dihydroxyvitamin D3 1×10^−8 M, 24 hours. The source says:
Vitamin D3 Receptor-Antagonist Activity in Terms of the Transcription Activity in Human Osteocalcin by 1α,25-dihydroxyvitamin D3 as a Marker
(1) A pGL3 vector (Promega Corp.) was used as a reporter vector. The promoter sequence of the human osteocalcin gene, which was obtained by a known method (Ozono et al., J. Biol. Chem., 265:21881-21888, 1990), was cloned from cDNA acquired from HOS cells (obtained from ATCC) and inserted into the upstream of the luciferase gene on the reporter vector. An expression vector was constructed by inserting a DNA sequence encoding human VDR and human RXR into a pcDNA3 vector (Invitrogen Corp). The HOS cells were incubated in a DMEM medium supplemented with 10% FBS at 37° C. in the presence of 5% CO2, and subcultivated every 2 or 3 days.
(2) Cells being subcultivated were collected by centrifugation and re-suspended in a serum and phenol red-free DMEM medium at 4×10^5 cells/mL. The re-suspension of cells was plated in a 96 well plate at 0.1 mL/well. In this system, various vectors described in (1) were added at 0.05 mL/well with Lipofectamin 2000 (Invitrogen Corp.). After the incubation for 3 hours at 37° C., 1α,25-dihydroxyvitamin D3 and the compounds of the present invention in various concentrations or TEI-9647 (note) as a control (the final concentration: 1×10^−8 M for 1α,25-dihydroxyvitamin D3, and 1×10^−6M and 1×10^−12M for the compounds of the present invention and TEI-9647) were added to each well. After incubation at 37° C. for 24 hours, the medium was removed, the cells were washed with PBS(−) once, and measured for the luciferase activity using a Dual Glo-Luciferase Assay kit (Promega Corp.) by luminometer (Berthold Corp.). The resulting luciferase values were plotted against the concentration of the test compounds and IC50 was determined as the concentration of the test compound at which the luciferase value was inhibited by 50%. Furthermore, to compare the intensities of activity among experiments, the IC50 value of the test compounds with respect to the IC50 value of […] in each experiment was calculated as the antagonist specific activity (%) against TEI-9647.
On the technique in general: A reporter such as luciferase makes a cellular process visible.

As to `C=C1/C(=C\C=C2/CCC[C@]3(C)[C@@H]([C@H](C)CC4CC(C)(O)C(=O)N4CCc4ccccc4)CC[C@@H]23)C[C@@H](O)[C@H](C)[C@@H]1O` (stereo partly drawn) [Compound No. 11a, 2α-methyl-1α,25-dihydroxyvitamin D3-26,23-lactam-N-(2-phenethyl)], the “VDR affinity (%)” value in assay [1] stood at 50%. At human VDR, the “Antagonist specific activity against TEI-9647 (%)” value turned out to be 90.5% and the IC50 (usually the midpoint of a concentration-inhibition curve) is 27.5 nM.
On to `C=C1/C(=C\C=C2/CCC[C@]3(C)[C@@H]([C@H](C)C[C@H]4C[C@](C)(O)C(=O)N4CCc4ccccc4)CC[C@@H]23)C[C@@H](O)[C@H](CCCO)[C@@H]1O` [Compound No. 12a, 2α-(3-hydroxypropyl)-1α,25-dihydroxyvitamin D3-26,23-lactam-N-(2-phenethyl)], for which the “VDR affinity (%)” value in assay [1] is on record as 222%. In addition, at human VDR, the “Antagonist specific activity against TEI-9647 (%)” value came out at 143.1% and the IC50 stood at 17.4 nM.
On the same counts, the results for `C=C1/C(=C\C=C2/CCC[C@]3(C)[C@@H]([C@H](C)C[C@H]4C[C@](C)(O)C(=O)N4CCc4ccccc4)CC[C@@H]23)C[C@@H](O)[C@H](OCCCO)[C@@H]1O` [Compound No. 13a, 2α-(3-hydroxypropoxy)-1α,25-dihydroxyvitamin D3-26,23-lactam-N-(2-phenethyl)] are 20%, 29.9% and 83.3 nM.
